Results taken from patent US20260216238A1, “TETRATHIOMOLYBDIC ACID FOR USE IN TREATING COPPER METABOLISM-ASSOCIATED DISEASES OR DISORDERS (WILSON DISEASE)” (Alexion Pharmaceuticals, Inc., priority 2023, published 2026).

System: patients with Wilson disease (WD)
Experiment: UWDRS Part III total score, functional subscale and individual items (neurological examination)
Format: in vivo, human
Conditions: for UWDRS Part III Functional Subscale (0-10) change from baseline, Mean (SD) / UWDRS Part III (0-175) change from baseline, Mean (SD): pooled Studies 301 and 201
Procedure: The UWDRS scoring system was developed specifically for the motor and movement disorders associated with chronic copper neurotoxicity in WD. Some individual items/subscales of the UWDRS Part III (arising from a chair, gait, handwriting, and speech) in addition to the UWDRS Parts I, II, and III overall, were assessed to further define the range of burdensome signs and symptoms of WD, so as to further understand the assessment of treatment effects on patients with WD. The UWDRS scores for consciousness (Part I) and abnormal neurologic examination findings (Part III) will be determined by a trained neurologist rater who is blinded to study treatment randomization. These scores were used to provide a rigorous dataset for evaluating changes from baseline.
Unified Wilson Disease Rating Scale (Parts I, II, and III): The UWDRS is a clinical rating scale designed to evaluate the neurological manifestations of WD that generally can be divided into 3 movement disorder syndromes: dystonic, ataxic, and Parkinsonian syndrome. The UWDRS comprises 3 parts: UWDRS Part I (level of consciousness, item 1), UWDRS Part II (a patient-reported review of daily activity items [disability], items 2 to 11), and UWDRS Part III (a detailed neurological examination, items 12 to 34).
The UWDRS Part I and Part III were assessed by a neurologist who is blinded to the treatment randomization, while UWDRS Part II may be reported to a non-blinded member of the study team by the patient, family member, or caregiver. The UWDRS has not been formally evaluated in adolescents. However, the components of Part I (level of consciousness), Part II (patient or caregiver-reported disability) and Part III (neurologic examination findings) were not fundamentally different between adults and adolescents. Patients aged 12 years and older were expected to be able to comply with UWDRS assessments.
Pooled results from all such participants will be integrated together into one timeline to allow analyses of changes in UWDRS, long-term copper control, and long-term safety laboratory data.
Endpoints (directly measured non-ceruloplasmin-bound copper [dNCC], UWDRS III (rater blinded) total and individual item scores, Clinical Global Impression-Improvement [CGI-I]) were evaluated at baseline (BL) and Week 48 (W48). Normalization (score decrease to 0), improvement (≥1 point decrease), stability (no change), or worsening (≥1 point increase) of total and individual UWDRS III item scores were evaluated at W48.

[1] = Week 24, Cohort 1, Study 201, n=8
[2] = Week 24, Cohort 1, Study 301, TTM n=90, SoC n=47
[3] = Week 24, Cohort 1, Total (Studies 301, 201, 205), n=98
[4] = Week 24, Study 301 TTM long term set
[5] = Week 48, Cohort 1, Study 201, n=9
[6] = Week 48, Cohort 1, Study 205, n=27
[7] = Week 48, Cohort 1, Study 301, TTM n=91, SoC n=49
[8] = Week 48, Cohort 1, Total (Studies 301, 201, 205), n=127

bis-choline tetrathiomolybdate [TTM]
UWDRS Part III Functional Subscale (0-10) change from baseline, Mean (SD) (TTM exposure 144 weeks): −1.042 (1.7227) | UWDRS-III change from baseline, Mean (SD) (TTM exposure 168 weeks, N=18): −18.08 (19.127) | UWDRS Part III (0-175) change from baseline, Mean (SD) (TTM exposure 168 weeks): −18.08 (19.127) | UWDRS Part III Functional Subscale (0-10) change from baseline, Mean (SD) (TTM exposure 168 weeks): −1.841 (2.1818) | UWDRS-III change from baseline, Mean (SD) (TTM exposure 192 weeks, N=19): −12.65 (19.476) | UWDRS Part III (0-175) change from baseline, Mean (SD) (TTM exposure 192 weeks): −12.65 (19.476) | UWDRS Part III Functional Subscale (0-10) change from baseline, Mean (SD) (TTM exposure 192 weeks): −1.250 (2.1459) | UWDRS-III change from baseline, Mean (SD) (TTM exposure 216 weeks, N=14): −16.17 (19.323) | UWDRS Part III (0-175) change from baseline, Mean (SD) (TTM exposure 216 weeks): −16.17 (19.323) | UWDRS Part III Functional Subscale (0-10) change from baseline, Mean (SD) (TTM exposure 216 weeks): −1.519 (2.3987) | UWDRS-III change from baseline, Mean (SD) (TTM exposure 240 weeks, N=13): −11.48 (16.473) | UWDRS Part III (0-175) change from baseline, Mean (SD) (TTM exposure 240 weeks): −11.48 (16.473) | UWDRS Part III Functional Subscale (0-10) change from baseline, Mean (SD) (TTM exposure 240 weeks): −0.898 (1.3384) | UWDRS-III change from baseline, Mean (SD) (TTM exposure 264 weeks, N=13): −14.00 (16.513) | UWDRS Part III (0-175) change from baseline, Mean (SD) (TTM exposure 264 weeks): −14.00 (16.513) | UWDRS Part III Functional Subscale (0-10) change from baseline, Mean (SD) (TTM exposure 264 weeks): −0.995 (1.2369) | UWDRS Part III-gait (0-10), Difference at 48 weeks, LSM (TTM vs SoC, P 0.4325): −0.15 | UWDRS Part III-handwriting (0-4), Difference at 48 weeks, LSM (TTM vs SoC, P 0.5077): −0.1 | UWDRS Part III functional subscale (0-10), Difference at 48 weeks, LSM (TTM vs SoC, P 0.6191): −0.067 | UWDRS Part III-arising from chair (0-4), Difference at 48 weeks, LSM (TTM vs SoC, P 0.6869): 0.0 | UWDRS Part III-speech (0-4), Difference at 48 weeks, LSM (TTM vs SoC, P 0.7238): 0.0 | UWDRS Part III (0-175), Difference at 48 weeks, LSM (TTM vs SoC, P 0.9441): −0.09 | UWDRS III total, LSM difference (SE) TTM versus SoC (W0-W48, cohort 1 incomplete response or intolerant, p=0.7084): −0.53 (1.426) | UWDRS-III, Change from Baseline, Max [1]: 1.0 | UWDRS-III, Change from Baseline, Mean [1]: −13.82 | UWDRS-III, Change from Baseline, Median [1]: −13.50 | UWDRS-III, Change from Baseline, Min [1]: −35.0, | UWDRS-III, Change from Baseline, Q1 [1]: −19.80, | UWDRS-III, Change from Baseline, Q3 [1]: −5.00 | UWDRS-III, Change from Baseline, Max [2]: 13.0 | UWDRS-III, Change from Baseline, Mean [2]: −0.86 | UWDRS-III, Change from Baseline, Median [2]: 0.00 | UWDRS-III, Change from Baseline, Min [2]: −18.7, | UWDRS-III, Change from Baseline, Q1 [2]: −3.00, | UWDRS-III, Change from Baseline, Q3 [2]: 1.00 | UWDRS-III, Change from Baseline, Max [3]: 13.0 | UWDRS-III, Change from Baseline, Mean [3]: −1.92 | UWDRS-III, Change from Baseline, Median [3]: −1.00 | UWDRS-III, Change from Baseline, Min [3]: −35.0, | UWDRS-III, Change from Baseline, Q1 [3]: −4.00, | UWDRS-III, Change from Baseline, Q3 [3]: 1.00 | UWDRS-III, Change from Baseline, LSM Diff (TTM vs. SoC) (Week 24, Cohort 1, TTM Total vs SoC Study 301, P-value 0.3884): −1.00 | UWDRS-III, Change from Baseline, LSM (Week 24, Cohort 1, TTM Total, SoC Study 301): −1.72 | UWDRS Part III (0-175) change from baseline, LSM [4]: −1.32 | UWDRS Part III (0-175) change from baseline, Mean [4]: −0.74 | UWDRS Part III functional subscale (0-10) change from baseline, LSM [4]: −0.158 | UWDRS Part III functional subscale (0-10) change from baseline, Mean [4]: −0.139 | UWDRS Part III-arising from chair (0-4) change from baseline, LSM [4]: −0.1 | UWDRS Part III-arising from chair (0-4) change from baseline, Mean [4]: 0.0 | UWDRS Part III-gait (0-4) change from baseline, LSM [4]: −0.21 | UWDRS Part III-gait (0-4) change from baseline, Mean [4]: −0.17 | UWDRS Part III-handwriting (0-4) change from baseline, LSM [4]: 0.0 | UWDRS Part III-handwriting (0-4) change from baseline, Mean [4]: −0.1 | UWDRS Part III-speech (0-4) change from baseline, LSM [4]: −0.1 | UWDRS Part III-speech (0-4) change from baseline, Mean [4]: −0.1 | UWDRS-III, Change from Baseline, Max [5]: 2.0 | UWDRS-III, Change from Baseline, Mean [5]: −19.44 | UWDRS-III, Change from Baseline, Median [5]: −13.00 | UWDRS-III, Change from Baseline, Min [5]: −48.0, | UWDRS-III, Change from Baseline, Q1 [5]: −29.00, | UWDRS-III, Change from Baseline, Q3 [5]: −9.00 | UWDRS-III, Change from Baseline, Max [6]: 6.0 | UWDRS-III, Change from Baseline, Mean [6]: −2.81 | UWDRS-III, Change from Baseline, Median [6]: −2.00 | UWDRS-III, Change from Baseline, Min [6]: −17.0, | UWDRS-III, Change from Baseline, Q1 [6]: −6.00, | UWDRS-III, Change from Baseline, Q3 [6]: 0.00 | UWDRS-III, Change from Baseline, Max [7]: 31.0 | UWDRS-III, Change from Baseline, Mean [7]: −2.24 | UWDRS-III, Change from Baseline, Median [7]: −1.00 | UWDRS-III, Change from Baseline, Min [7]: −28.0, | UWDRS-III, Change from Baseline, Q1 [7]: −4.00, | UWDRS-III, Change from Baseline, Q3 [7]: 0.00 | UWDRS-III, Change from Baseline, Max [8]: 31.0 | UWDRS-III, Change from Baseline, Mean [8]: −3.58
